Values quoted from earlier work as cited in patent US20090318556A1, “BIOMARKERS FOR DETECTING RADIATION EXPOSURE: METHODS AND USES THEREOF” (priority 2008, published 2009).

Tests used:
PPARα = molecular target: T1, PPARα (Mus musculus, UniProt P23204); conditions: mice
T1 construct: host or cells: mice (whole animal, endogenous receptor)
T1 sequence (P23204 1-468): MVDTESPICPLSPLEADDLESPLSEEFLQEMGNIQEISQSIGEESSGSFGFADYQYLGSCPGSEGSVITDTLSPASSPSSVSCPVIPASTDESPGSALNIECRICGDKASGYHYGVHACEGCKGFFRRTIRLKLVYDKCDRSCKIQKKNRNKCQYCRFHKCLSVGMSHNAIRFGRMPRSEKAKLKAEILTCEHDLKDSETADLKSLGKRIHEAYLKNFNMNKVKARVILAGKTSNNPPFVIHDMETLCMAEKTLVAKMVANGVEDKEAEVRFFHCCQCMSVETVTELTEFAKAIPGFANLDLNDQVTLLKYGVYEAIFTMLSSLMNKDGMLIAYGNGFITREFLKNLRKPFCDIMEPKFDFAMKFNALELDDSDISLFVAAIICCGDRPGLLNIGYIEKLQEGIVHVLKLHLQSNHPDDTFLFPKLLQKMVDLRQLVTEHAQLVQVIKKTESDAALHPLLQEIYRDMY

[1] = in vivo, iv

Row | urinary excretion reduced after activation of PPARα (PPARα) | radioactivity in urine relative to plasma [1] | Compound
1 | 20 fold |  | CCCCCC(=O)NCC(=O)O [N-Hexanoylglycine]
2 |  | approximately 100 times | Cc1cn([C@H]2C[C@H](O)[C@@H](CO)O2)c(=O)[nH]c1=O [[^3H]thymidine]
